Reference: US7166275B2, “Compositions containing phenethyl aryl esters as solubilizing agents for active organic compounds” (ISP Investments Inc., priority 2003, dated 2007)

Experiments:
[1] = Solubility of solid organic sunscreens (Escalol 517, Escalol 567) in various solvents; type: physicochemical; conditions: solutions prepared at 50° C., stood 1 week at 25° C., seeded
Procedure: A small seed crystal was added at 25° C. to hasten equilibration.

[2] = Solubility of active compounds in 2-phenylethyl benzoate, determined by GLC; type: physicochemical; conditions: for Solubility (soluble up to) in 2-phenylethyl benzoate: solvent 2-phenylethyl benzoate, 25° C.
Procedure: Predetermined weight/weight (w/w) solutions were prepared at 50° C. using a given solvent and Escalol® 517 or Escalol® 567. […] A small seed crystal was added at 25° C. to hasten equilibration. Solubility limits were determined by observation of the amount of solid present, and then more precisely by a GLC method (see Example 15).
5-Chloro-2-(2,4-dichlorophenoxy)phenol (Triclosan) has bacteriostatic properties and is used as a disinfectant and preservative in cosmetic and detergent preparations. It is soluble up to 69% w/w in 2-phenylethyl benzoate, as determined by GLC. Thus, 50% w/w and 60% w/w mixtures were homogeneous solutions at 25° C., but a 70% w/w solution prepared at 70° C. precipitated a small amount of solid when seeded at 25° C. and allowed to stand for 3 days.
An 80% w/w solution prepared from 8.002 g of Triclosan and 2.009 g of 2-phenylethyl benzoate precipitated a significant amount of solid at 25° C. A 23.3-mg sample of the supernatant was dissolved in 1.00 mL of chloroform and 1.00 μL was injected via automatic injector into a GLC instrument. The areas of the 2-phenylethyl benzoate and Triclosan peaks were 9381 and 12953, respectively. The mixture was heated at 70° C. until it was homogeneous, and an 18.2-mg sample was dissolved and injected in the same manner. […] (Note that the amount injected was 3.6 μg+14.6 μg=18.2 μg.) Therefore, under our GLC conditions the response factors were 1240 units/μg and 770 units/μg, respectively. Then, the respective amounts of each component in the supernatant were 9381/1240 =7.6 μg and 12953/770 =16.8 μg, which corresponds to 69% w/w Triclosan.

Row | SMILES | Solubility of Escalol 517 in the solvent ([1]; solute Escalol 517 (avobenzone)) | Solubility of Escalol 567 in the solvent ([1]; solute Escalol 567 (benzophenone-3)) | Solubility (soluble up to) in 2-phenylethyl benzoate [2] | Solubility (soluble up to) in 2-phenylethyl benzoate/N-methylpyrrolidinone (1:1 w/w) ([2]; solvent 2-phenylethyl benzoate/N-methylpyrrolidinone (1:1 w/w))
1 | O=C(OCCc1ccccc1)c1ccccc1C(=O)OCCc1ccccc1 [Di-2-phenylethyl phthalate, di-2-phenylethyl phthalate] | 30 % w/w | 31 % w/w |  | 
2 | Oc1cc(Cl)ccc1Oc1ccc(Cl)cc1Cl [Triclosan, 5-Chloro-2-(2,4-dichlorophenoxy)phenol] |  |  | 69 % w/w | 
3 | CCCN(CCC)c1c([N+](=O)[O-])cc(C(F)(F)F)c(N)c1[N+](=O)[O-] [Prodiamine, 5-Dipropylamino-α,α,α-trifluoro-4,6-dinitro-o-toluidine] |  |  | 5 % w/w | 24 % w/w
